Measurements as given in US6657061B2, “Polymorphic forms of 6-[4-1(1-cyclohexyl-1H-tetrazol-5-yl)butoxy]-3,4-dihydro-2(1H)-quinolinone” (priority 2001, dated 2003).

Experiments:
[1] = Form A as prepared by the procedures of the '479 patent; cited from earlier work
[2] = Form A as prepared by the procedures of the '479 patent; cited from earlier work; remark: listed apart in the source
[3] = stability of the polymorphic form (statement only); assay type: physicochemical; conditions: solid form; test conditions not given
[4] = DSC thermogram of combined Forms A, B and C; relative solubility inferred from melting points; assay type: physicochemical; conditions: suggested by the lower DSC melting point (weaker crystal packing forces), not measured directly
From the text: Characterization of Form A of cilostazol, Form B of cilostazol, and Form C of cilostazol was further completed using DSC thermograms, shown in FIGS. 3, 4, and 5, respectively, with DSC thermograms for combinations of Form A and Form B; Form B and Form C; and Forms A, B, and C are shown in FIGS. 6, 7, and 8 respectively. DSC data were generated using a Mettler-Toledo DSC 821^e (Columbus, Ohio) with a Julabo FT900 intercooler chiller (Julabo Company; Allentown, Pa.). In general, samples were analyzed in a vented, sealed aluminum pan. Because the endothermic peak may vary depending upon the rate of heating and the calibration and precision of the instrument, with the amount of peak variation dependent upon the heating rate used, all thermograms included herein were run under the same, consistent conditions: heating at 10° C. per minute under a nitrogen purge at 40 mL/minute.
FIG. 8 illustrates a DSC thermogram for the combination of Form A, Form B and Form C having a second heating cycle with a maximum temperature of about 110° C. with a holding time of about 30 minutes. The peaks in the third heating cycle show a Form A to Form B to Form C peak area ratio of approximately 8:2:1, respectively, with the relative amount of Form A, Form B and Form C further variable on the heat of enthalpy of each polymorphic form.

O=C1CCc2cc(OCCCCc3nnnn3C3CCCCC3)ccc2N1 [Form A, 6-[4-(1-cyclohexyl-1H-tetrazol-5-yl)butoxy]-3,4-dihydro-2(1H)-quinolinone]
bioavailability [1]: low | aqueous solubility [2]: low

O=C1CCc2cc(OCCCCc3nnnn3C3CCCCC3)ccc2N1 [Form B, 6-[4-(1-cyclohexyl-1H-tetrazol-5-yl)butoxy]-3,4-dihydro-2(1H)-quinolinone]
stability of polymorph [3]: stable | solubility relative to Form A [4]: more soluble than Form A
